Measured values taken from patent US20260183302A1, “PDK1 REGULATORY COMPOUND AND COMPOSITION CONTAINING THE SAME” (PROVIBIO CO., LTD., priority 2024, published 2026).

Columns and labels:
[1] = tested on: T cells isolated from mouse spleens; assay: T cell proliferation inhibition (CFSE flow cytometry, anti-CD3/anti-CD28 stimulation); type: cell-based, C57BL/6 mice; conditions: three days
In short: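 Splenic T cells from 7-week-old C57BL/6 mice, CFSE-labelled, 2× 10^5 cells/well, stimulated with anti-CD3 and anti-CD28 (0.5 μg/mL each). Compound at 10 nM-50 μM in triplicate for three days at 37 °C, 5% CO2; proliferation inhibition (%) derived by flow cytometry.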

[2] = tested on: Human Osteosarcoma, Saos-2; assay: Relative cell viability, Saos-2 (CCK-8); type: cell-based
Description: Human-derived head and neck cancer cell line Fadu and osteosarcoma cell line Saos-2 were cultured in MEM medium containing 10% FBS, 100 U/mL penicillin, and 100 μg/mL streptomycin.
(§1) Following stabilization, the cells were harvested using Trypsin-EDTA treatment, centrifuged at 1,200 rpm for 3 minutes, the supernatant was removed, and the cells were resuspended in the same medium. They were then seeded into a 96-well plate (Costar 96-well cell culture plate, Corning) at 100 μL per well, and the conditions were adjusted as indicated in Table 5.
The cells were cultured in a 5% CO2 incubator at 37° C. for 24 hours, and after stabilization of the cells, each plate was washed with 200 μL of PBS per well and treated with 50 μL of culture medium per well. […]
(§2) After that, 10 μL of CCK-8 was added to each well, and the plate was incubated again at 37° C. in a 5% CO2 incubator for 2 hours.
(§3) In other words, when the survival rate of untreated cells (DMSO) is set at 100%, the relative cell survival rate in each group treated with the drug at different concentrations is indicated.

[3] = tested on: Human Colorectal Carcinoma cell line, HCT-116; assay: Relative cell viability, HCT-116 (CCK-8); type: cell-based; conditions: 48 hours
Description: Human-derived breast cancer cell line MCF-7, human-derived lung cancer cell line A549, human-derived colorectal cancer cell line HCT-116, human pancreatic cancer cell line AsPC-1, glioblastoma cell line A172, and melanoma cell line Malme-3M were obtained from the Korean Cell Bank. gastric cancer cell line SNU-719, and bladder cancer cell line T24 were cultured in RPMI-1640 medium containing 10% FBS.
as §1
The cells were cultured in a 5% CO2 incubator at 37° C. for 24 hours, and after stabilization of the cells, each plate was washed with 200 μL of PBS per well and treated with 50 μL of culture medium per well.
as §2, §3

[4] = tested on: NHDF (Normal Human Dermal Fibroblast) cells; assay: Anti-aging in doxorubicin/IGF-1 aged NHDF cells (SA-β-gal, Ki-67 FACS); type: cell-based; conditions: Doxorubicin (100 ng/ml) and IGF-1 (100 ng/ml), GO15F 0.01, 1 μM, 7 days
Description: To confirm the anti-aging and rejuvenating effects of the compound GO15F of the present invention, a NHDF (Normal Human Dermal Fibroblast, Promocell) cell model was established by inducing aging with doxorubicin (Doxorubicin), and β-galactosidase activity and Ki-67 expression were analyzed in the cells. First, NHDF cells were seeded at 1×10^4 cells per well in a 12-well plate and stabilized for 24 hours. […] After pre-incubation, the medium was removed, and the cells were cultured for 7 days in medium containing Doxorubicin (100 ng/ml) and IGF-1 (100 ng/ml) with GO15F. During this process, the medium was replaced with fresh medium every 2 days. The cultured cells were washed with PBS, fixed with 1× fixation buffer for 15 minutes, washed again with PBS, and then 300 μL of 1× working SA-β-gal buffer was added to each well. The cells were incubated at 37° C. for 24 hours. After the reaction was terminated, the cells were washed with PBS, and the […] of β-gal-positive cells stained blue was observed and photographed using a light microscope. Additionally, to investigate the effect of the compound (GO15F) of the present invention on proliferation activity in aging-induced NHDF (Normal Human Dermal Fibroblast) cells, Ki-67 expression was measured via FACS analysis. First, NHDF cells were seeded at 1×10^4 cells per well in a 12-well plate and stabilized for 24 hours. […]

Compound | Proliferation inhibition rate (%) ([1]; concentration 10 nM) | Proliferation inhibition rate (%) ([1]; concentration 100 nM) | Proliferation inhibition rate (%) ([1]; concentration 1 μM) | Proliferation inhibition rate (%) ([1]; concentration 10 μM) | Proliferation inhibition rate (%) ([1]; concentration 30 μM) | Proliferation inhibition rate (%) ([1]; concentration 50 μM) | Relative cell viability (%) ([2]; Saos-2, 10 μM, 48 hours) | Relative cell viability (%) ([2]; Saos-2, 30 μM, 48 hours) | Relative cell viability (%) ([2]; Saos-2, 50 μM, 48 hours) | Relative cell viability (%) ([2]; Saos-2, 48 hours) | Relative cell viability (%) ([3]; HCT-116, 1 μM) | Relative cell viability (%) ([3]; HCT-116, 10 μM) | Relative cell viability (%) ([3]; HCT-116, 30 μM) | Relative cell viability (%) ([3]; HCT-116, 50 μM) | β-galactosidase activity (β-gal-positive cells) [4]
12-[4-(2,2-dimethylmorpholin-4-yl)]dodecyl-N-(6-aminopurine-2-yl) carboxamide [Compound 11] | −25.47% | 100.00% | 100.00% | 100.00% | 100.00% | 100.00% | 24.98% | 16.00% | 36.73% | 36.73% | 21.36% | 24.91% | 24.78% | 25.26% | –
Nc1ncccc1C(=O)NCCCCCCCCCCCCF [Compound 57, 2-Amino-N-(12-fluoro-dodecyl)-nicotinamide] | – | – | – | – | – | – | – | – | – | – | – | – | – | – | number of β-gal-positive cells decreased
